{"source": "patent US20040034086A1", "about": "“Combination of an allosteric inhibitor of matrix metalloproteinase-13 with celecoxib or valdecoxib” (priority 2002, published 2004)", "origin": "cited, not measured here", "data": [{"smiles": "Cc1onc(-c2ccccc2)c1-c1ccc(S(N)(=O)=O)cc1", "note": "[valdecoxib, 4-(5-methyl-3-phenyl-4-isoxazolyl)-benzenesulfonamide]", "values": [{"measurement": "Tolerability in clinical studies", "setting": "combined analysis of various clinical studies", "value": "well tolerated"}, {"measurement": "Overall upper gastrointestinal safety profile (ulcers, perforations, obstructions and GI bleeds)", "setting": "compared with conventional NSAIDs such as ibuprofen, diclofenac and naproxen", "value": "significantly better than the conventional NSAIDs studied"}]}]}
